Columns and labels:
Assay in all cases: Ras-Raf disruption / FRET / MOA assay (BRAF RBD)
Assay type in all cases: biochemical
[1] = biological target: NRAS G12C (Homo sapiens, UniProt P01111+P62937, G12C); details: NRAS G12C; read-out: NRAS G12C FRET data IC50
From the text: (§1) Disruption of […] Ras-binding Domain (BRAF^RBD) Interaction with K-Ras by Compounds of the Invention (also Called a FRET Assay or an MOA Assay)
(§2) Note—The following protocol describes a procedure for monitoring disruption of K-Ras G12C (GMP-PNP) binding to BRAF^RBD by a compound of the invention. This protocol may also be executed substituting other Ras proteins or nucleotides, such as K-Ras G12D and K-Ras G13D.
(§3) The purpose of this biochemical assay was to measure the ability of test compounds to facilitate ternary complex formation between a nucleotide-loaded K-Ras isoform and Cyclophilin A; the resulting ternary complex disrupts binding to a BRAF^RBD construct, inhibiting K-Ras signaling through a RAF effector. Data is reported as IC50 values.
(§4) In assay buffer containing 25 mM HEPES pH 7.3, 0.002% Tween20, 0.1% BSA, 100 mM NaCl and 5 mM MgCl2, tagless Cyclophilin A, His6-K-Ras-GMPPNP, and GST-BRAF^RBD were combined in a 384-well assay plate at final concentrations of 25 μM, 12.5 nM, and 50 nM, respectively. Compound was present in plate wells as a 10-point 3-fold dilution series starting at a final concentration of 30 μM. After incubation at 25° C. for 3 hours, a mixture of anti-His Eu-W1024 and anti-GST allophycocyanin was then added to assay sample wells at final concentrations of 10 nM and 50 nM, respectively, and the reaction incubated for an additional 1.5 hours. […] Compounds that facilitate disruption of a K-Ras:RAF complex were identified as those eliciting a decrease in the TR-FRET ratio relative to DMSO control wells.

[2] = biological target: KRAS G13D (Homo sapiens, UniProt P01116+P62937, G13D); details: Ras-Raf disruption, with Cyclophilin A; read-out: KRAS G13D FRET data IC50
Sequence of KRAS G13D (P01116 1-169 isoform P01116-2 G13D limits assumed): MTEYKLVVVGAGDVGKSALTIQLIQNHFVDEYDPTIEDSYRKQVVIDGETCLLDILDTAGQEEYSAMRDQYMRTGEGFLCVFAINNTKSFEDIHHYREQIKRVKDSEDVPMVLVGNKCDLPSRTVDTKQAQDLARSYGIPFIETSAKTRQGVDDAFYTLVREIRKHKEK
Sequence of KRAS G13D (P62937 whole entry): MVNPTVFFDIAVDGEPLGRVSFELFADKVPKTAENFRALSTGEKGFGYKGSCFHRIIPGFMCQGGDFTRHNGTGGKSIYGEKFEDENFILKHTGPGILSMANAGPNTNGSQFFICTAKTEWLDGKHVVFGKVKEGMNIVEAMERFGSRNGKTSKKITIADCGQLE
From the text: as §1, §2, §3, §4

[3] = biological target: KRAS G12V (Homo sapiens, UniProt P01116+P62937, G12V); details: Ras-Raf disruption, with Cyclophilin A; read-out: KRAS G12V FRET data IC50
Sequence of KRAS G12V (P01116 1-169 isoform P01116-2 G12V limits assumed): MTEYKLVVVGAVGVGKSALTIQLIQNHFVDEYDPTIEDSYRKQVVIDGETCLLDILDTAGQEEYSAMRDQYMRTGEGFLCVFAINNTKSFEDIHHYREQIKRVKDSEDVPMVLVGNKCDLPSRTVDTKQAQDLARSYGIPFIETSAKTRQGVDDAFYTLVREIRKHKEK
Sequence of KRAS G12V (P62937 whole entry): as the sequence (P62937 whole entry) above
From the text: as §1, §2, §3, §4

[4] = biological target: KRAS G13C (Homo sapiens, UniProt P01116+P62937, G13C); details: Ras-Raf disruption, with Cyclophilin A; read-out: KRAS G13C FRET data IC50
Sequence of KRAS G13C (P01116 1-169 isoform P01116-2 G13C limits assumed): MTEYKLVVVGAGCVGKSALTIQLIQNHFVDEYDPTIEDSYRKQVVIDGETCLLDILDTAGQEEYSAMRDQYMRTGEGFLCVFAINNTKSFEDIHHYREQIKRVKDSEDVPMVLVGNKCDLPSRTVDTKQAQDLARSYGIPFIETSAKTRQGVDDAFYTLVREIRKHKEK
Sequence of KRAS G13C (P62937 whole entry): as the sequence (P62937 whole entry) above
From the text: as §1, §2, §3, §4

[5] = biological target: KRAS G12D (Homo sapiens, UniProt P01116+P62937, G12D); details: Ras-Raf disruption, with Cyclophilin A; read-out: KRAS G12D FRET data IC50
Sequence of KRAS G12D (P01116 1-169 isoform P01116-2 G12D limits assumed): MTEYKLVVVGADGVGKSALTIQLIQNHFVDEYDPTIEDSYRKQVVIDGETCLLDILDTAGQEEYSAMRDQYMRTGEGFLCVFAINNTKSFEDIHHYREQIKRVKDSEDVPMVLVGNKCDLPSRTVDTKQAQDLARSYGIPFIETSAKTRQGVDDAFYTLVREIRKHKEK
Sequence of KRAS G12D (P62937 whole entry): as the sequence (P62937 whole entry) above
From the text: as §1, §2, §3, §4

[6] = biological target: KRAS WT (Homo sapiens, UniProt P01116+P62937); details: Ras-Raf disruption, with Cyclophilin A; read-out: KRAS WT FRET data IC50
Sequence of KRAS WT (P01116 1-169 isoform P01116-2 limits assumed): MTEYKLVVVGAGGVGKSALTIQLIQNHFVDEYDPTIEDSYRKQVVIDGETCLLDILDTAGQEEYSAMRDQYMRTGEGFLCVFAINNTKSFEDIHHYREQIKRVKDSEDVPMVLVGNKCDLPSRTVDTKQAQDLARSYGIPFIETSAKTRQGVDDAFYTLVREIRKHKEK
Sequence of KRAS WT (P62937 whole entry): as the sequence (P62937 whole entry) above
From the text: as §1, §2, §3, §4

[7] = biological target: KRAS G12S (Homo sapiens, UniProt P01116+P62937, G12S); details: Ras-Raf disruption, with Cyclophilin A; read-out: KRAS G12S FRET data IC50
Sequence of KRAS G12S (P01116 1-169 isoform P01116-2 G12S limits assumed): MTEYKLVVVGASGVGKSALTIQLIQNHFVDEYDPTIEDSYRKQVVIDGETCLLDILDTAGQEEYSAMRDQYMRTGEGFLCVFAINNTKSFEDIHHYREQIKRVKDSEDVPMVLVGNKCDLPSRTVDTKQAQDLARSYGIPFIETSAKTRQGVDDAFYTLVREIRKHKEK
Sequence of KRAS G12S (P62937 whole entry): as the sequence (P62937 whole entry) above
From the text: as §1, §2, §3, §4

[8] = biological target: KRAS G12C (Homo sapiens, UniProt P01116+P62937, G12C); details: Ras-Raf disruption, with Cyclophilin A; read-out: KRAS G12C FRET data IC50
Sequence of KRAS G12C (P01116 1-169 isoform P01116-2 G12C limits assumed): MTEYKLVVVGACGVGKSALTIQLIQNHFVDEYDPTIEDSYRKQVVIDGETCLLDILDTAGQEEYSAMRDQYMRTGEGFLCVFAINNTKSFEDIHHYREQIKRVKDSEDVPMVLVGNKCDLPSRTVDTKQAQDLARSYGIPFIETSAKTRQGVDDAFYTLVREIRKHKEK
Sequence of KRAS G12C (P62937 whole entry): as the sequence (P62937 whole entry) above
From the text: as §1, §2, §3, §4
as §3, with “is” for “was”, “Ras” for “K-Ras”, “cyclophilin” for “Cyclophilin”, “effector.” for “effector. Data is reported as IC50 values.”
In assay buffer containing 25 mM HEPES pH 7.3, 0.002% Tween20, 0.1% BSA, 100 mM NaCl and 5 mM MgCl2, tagless Cyclophilin A, His6-K-Ras-GMPPNP (or other Ras variant), and GST-BRAF^RBD are combined in a 384-well assay plate at final concentrations of 25 μM, 12.5 nM and 50 nM, respectively. Compound is present in plate wells as a 10-point 3-fold dilution series starting at a final concentration of 30 μM. After incubation at 25° C. for 3 hours, a mixture of Anti-His Eu-W1024 and anti-GST allophycocyanin is then added to assay sample wells at final concentrations of 10 nM and 50 nM, respectively, and the reaction incubated for an additional 1.5 hours. […] Compounds that facilitate disruption of a Ras:RAF complex are identified as those eliciting a decrease in the TR-FRET ratio relative to DMSO control wells.

Sequence of NRAS G12C (P01111 whole entry G12C, the tested form may be a part): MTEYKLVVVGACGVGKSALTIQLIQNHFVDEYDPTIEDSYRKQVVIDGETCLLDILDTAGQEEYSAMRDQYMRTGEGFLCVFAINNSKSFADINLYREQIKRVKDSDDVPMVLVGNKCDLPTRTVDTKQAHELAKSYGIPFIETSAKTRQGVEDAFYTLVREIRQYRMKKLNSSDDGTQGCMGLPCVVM
Sequence of NRAS G12C (P62937 whole entry, the tested form may be a part): as the sequence (P62937 whole entry) above

Row | SMILES | IC50 [1] | IC50 [2] | IC50 [3] | IC50 [4] | IC50 [5] | IC50 [6] | IC50 [7] | IC50 [8]
1 | CCn1c(-c2cccnc2[C@H](C)OC)c2c3cc(ccc31)-c1cc(O)cc(c1)C[C@H](NC(=O)[C@H](C(C)C)N(C)C(=O)[C@]1(F)CCN(C(=O)[C@@H]3CN3)C1)C(=O)N1CCC[C@H](N1)C(=O)OCC(C)(C)C2 (atropisomer, axis not shown) [Example 184] | < 10 nM | 100 to 1000 nM | 100 to 1000 nM | 10 to 100 nM | 100 to 1000 nM | 100 to 1000 nM | 100 to 1000 nM | < 10 nM
2 | CCn1c(-c2cccnc2[C@H](C)OC)c2c3cc(ccc31)-c1cc(O)cc(c1)C[C@H](NC(=O)[C@H](C(C)C)N(C)C(=O)N1CCN(C(=O)[C@@H]3CN3)C(=O)C1)C(=O)N1CCC[C@H](N1)C(=O)OCC(C)(C)C2 [Example 194] | 100 to 1000 nM | 10 to 100 nM | 100 to 1000 nM | 10 to 100 nM | 100 to 1000 nM | 100 to 1000 nM | 100 to 1000 nM | 100 to 1000 nM
3 | CCn1c(-c2cccnc2[C@H](C)OC)c2c3cc(ccc31)-c1cc(O)cc(c1)C[C@H](NC(=O)[C@H](C1CCCC1)N1CC[C@@]3(CCN(C(=O)[C@H]4CN4)C3)C1=O)C(=O)N1CCC[C@H](N1)C(=O)OCC(C)(C)C2 [Example 174] | < 10 nM | 10 to 100 nM | 10 to 100 nM | 10 to 100 nM | 100 to 1000 nM | 10 to 100 nM | 10 to 100 nM | < 10 nM
4 | CCn1c(-c2cccnc2[C@H](C)OC)c2c3cc(ccc31)-c1csc(n1)C[C@H](NC(=O)[C@H](C(C)C)N(C)C(=O)N1CCN(C(=O)[C@@H]3CN3)CC1)C(=O)N1CCC[C@H](N1)C(=O)OCC(C)(C)C2 [Example 168] | 10 to 100 nM | 100 to 1000 nM | 100 to 1000 nM | 100 to 1000 nM | 100 to 1000 nM | 10 to 100 nM | 10 to 100 nM | 10 to 100 nM
5 | CCn1c(-c2cnccc2COC)c2c3cc(ccc31)-c1cc(O)cc(c1)C[C@H](NC(=O)[C@H](C(C)C)N(C)C(=O)CN(C)C(=O)[C@H]1[C@@H](C(=O)OC)N1[S@+]([O-])C(C)(C)C)C(=O)N1CCC[C@H](N1)C(=O)OCC(C)(C)C2 (some centres unmarked) [Example 48] | 10 to 100 nM | 100 to 1000 nM | 10 to 100 nM | 10 to 100 nM | 100 to 1000 nM | 100 to 1000 nM | 10 to 100 nM | 10 to 100 nM
6 | CCn1c(-c2cccnc2[C@H](C)OC)c2c3cc(ccc31)-c1cc(O)cc(c1)C[C@H](NC(=O)[C@H](C(C)C)N1CCC3(CN(C(=O)[C@@H]4CN4)C3)C1=O)C(=O)N1CCC[C@H](N1)C(=O)OCC(C)(C)C2 [Example 109] | < 10 nM | 10 to 100 nM | 100 to 1000 nM | 10 to 100 nM | 1000 to 10000 nM | 10 to 100 nM | 100 to 1000 nM | < 10 nM
7 | CCn1c(-c2cccnc2[C@H](C)OC)c2c3cc(ccc31)-c1cc(O)cc(c1)C[C@H](NC(=O)[C@H](C(C)C)N(C)C(=O)N1CCN(C(=O)[C@H]3CN3)C(=O)C1)C(=O)N1CCC[C@H](N1)C(=O)OCC(C)(C)C2 [Example 143] | 10 to 100 nM | 10 to 100 nM | 100 to 1000 nM | 10 to 100 nM | 100 to 1000 nM | 10 to 100 nM | 10 to 100 nM | 10 to 100 nM

Source: patent publication US20230233569A1 (Revolution Medicines, Inc., priority 2020, published 2023)
